The text below walks through data of US11667637B2, “Fused imidazo-piperidine JAK inhibitors” (THERAVANCE BIOPHARMA R&D IP, LLC, priority 2017, dated 2023).

The subject of assay [1] is IL-5 mediated survival of human eosinophils. Nature of the assay: IL-5 mediated eosinophil survival assay. Type of assay: cell-based. The note with it: statement in words. The protocol: Assay 6: IL-5 Mediated Eosinophil Survival Assay
The potency of the test compound for IL-5 mediated eosinophil survival was measured in human eosinophils isolated from human whole blood (AllCells). Because IL-5 signals through JAK, this assay provides a measure of JAK cellular potency.
Human eosinophils were isolated from fresh human whole blood (AllCells) of healthy donors. Blood was mixed with 4.5% Dextran (Sigma-Aldrich) in a 0.9% sodium chloride solution (Sigma-Aldrich). Red blood cells were left to sediment for 35 minutes. The leukocyte rich upper layer was removed and layered over Ficoll-Paque (GE Healthcare) and centrifuged at 600 g for 30 minutes. The plasma and mononuclear cell layers were removed before the granulocyte layer was lysed with water to remove any contaminating red blood cells. […] Purity was analyzed using a LSRII flow cytometer (BD Biosciences). […]
After cytokine stimulation, cells were centrifuged at 300 g for 5 min and washed twice with cold DPBS (Life Technologies). To access viability and apoptosis, cells were incubated with Propidium Iodide (Thermo Fisher Scientific) and APC Annexin V (BD Biosciences) and analyzed using a LSRII flow cytometer (BD Biosciences). IC50 values were determined from analysis of the viability curves of percent cell viability vs compound concentration. Data are expressed as pIC50 (negative decadic logarithm IC50) values.

Assay [2] has as its system IL-6 stimulated STAT3 phosphorylation in CD3+ T cells. Nature of the assay: Inhibition of IL-6 stimulated pSTAT3 in CD3+ T cells. Type of assay: cell-based, human. The note with it: statement in words. An excerpt:
Assay 10: Cellular JAK Potency Assay: Inhibition of IL-6 Stimulated pSTAT3 in CD3+ T Cells
A protocol analogous to that of Assay 9 was used to determine the potency of the test compound for inhibition of interleukin-6 (IL-6) stimulated STAT3 phosphorylation. An Alexa Fluor 647 conjugated anti-pSTAT3 antibody (pY705, Clone 4/P, BD Biosciences) was used to detect STAT3 phosphorylation.

For `CCCN1Cc2[nH]c(-c3n[nH]c4cc(-c5cc(F)c(O)cc5CC)ccc34)nc2C[C@H]1C(=O)N1C[C@@H]2C[C@H]1CN2C` [Example 1, ((S)-2-(6-(2-ethyl-5-fluoro-4-hydroxyphenyl)-1H-indazol-3-yl)-5-propyl-4,5,6,7-tetrahydro-3H-imidazo[4,5-c]pyridin-6-yl)((1S,4S)-5-methyl-2,5-diazabicyclo-[2.2.1]heptan-2-yl)methanone], the “inhibition of IL-5 mediated human eosinophil survival” value in assay [1] is “potently inhibit”. Moreover, the “inhibition of IL-6 signaling” value in assay [2] is “inhibit IL-6 signaling”.
`CCc1cc(O)c(F)cc1-c1ccc2c(-c3nc4c([nH]3)CN(C(C)C)[C@H](C(=O)N3CC[C@H](N(C)C)C3)C4)n[nH]c2c1` [Example 3]: the “inhibition of IL-6 signaling” value in assay [2] is “inhibit IL-6 signaling”.
